Test results published in patent publication US4999344A, “Phosphatidyl treatment of rapidly proliferating cells” (priority 1988, dated 1991).

What was measured:
[1] = test system: HT-144; experiment: Liposomal uptake by normal and tumor cells; format: cell-based, human; details: tumor cells HT-144
Method: (§1) Cells were treated with liposomes containing synthetic preparations of PI (left frames) or PC (right frames) containing palmitic acid in the sn-1 position and either [^14 C]linoleic acid in the sn-2 position (FIGS. 5 and 5a) or [^14 C]arachidonic acid in the sn-2 position (FIGS. 6 and 6a) or [^14 C]oleic acid in the sn-2 position (FIGS. 7 and 7a). The liposomes were comprised of the indicated phospholipids (PI or PC) and cholesterol in a molar ratio of 2:1.
(§2) The data in Table 5 was obtained concomitantly with the toxicity studies in FIGS. 5-7a.

[2] = test system: N4TG1; experiment: Liposomal uptake by normal and tumor cells; format: cell-based, mouse; details: tumor cells N4TG1
Method: (§3) Thymidine uptake is a method of assessing cell viability of cultured cells, and decreased thymidine uptake occurs as a result of cytotoxicity caused by contact with toxic substances. , MRC-5 normal embryonic lung fibroblasts; , W1-38SV/40 transformed embryonic human lung fibroblasts; .quadrature..quadrature., SK-N-MC human glioblastoma cells and , N4TG1 mouse neuroblastoma cells.
as §1, §2

[3] = test system: N4TG1 neuroblastoma cells; experiment: Thymidine uptake (cell viability) by N4TG1 neuroblastoma cells incubated with liposomes; format: cell-based, mouse
Method: Plant PI(S) is from the Sigma Chemical Company and plant PI(A) is from Avanti Polar Lipids, Inc. and ([^14 C]linoleoyl)PI is the synthetic PI.
FIGS. 3a and 3b show the effect of increasing the molar fraction of synthetic PI or animal PI in liposomes on (a) thymidine uptake (FIG. 3a) and myo-inositol uptake (FIG. 3b) by N4TG1 neuroblastoma cells, .circle. 100 μm PI, 200 μm PI, 300 μm PI. Cells were incubated with liposomes made up of the various combinations indicated (mol %) of ([^14 C]linoleoyl)PI and animal PI.
FIGS. 9a, b, c, and d show the effect of inhibitors on PI toxicity to tumor cells.
(§4) Lipids were dried and resuspended exactly as described previously in the Biochem. Biophys. Res. Commun. article. In the use of ([^14 C]linoleoyl)PI, ([^14 C]oleoyl)PI, or ([^14 C]arachidonoyl)PI the phospholipids were used in a 2:1 molar combination with cholesterol. Cholesterol was included in the liposomes in order to minimize the net transfer of cholesterol into or out of the cells. ([^3 H]myo-Inositol)PI was used as a tracer (1%) with bovine liver PI as the bulk phospholipid carrier for forming liposomes. [^3 H]Linoleic acid was used as a tracer (4%) in liposomes containing linoleic acid:PI (yeast or animal): cholesterol, 2:1. It was shown that it is not necessary to have cholesterol present to observe the cytotoxicity.
The N4TG1 mouse neuroblastoma cell line was obtained from Dr. Peter Chiang (Walter Reed Army Institute of Research) and cultured using Dulbecco's minimal essential medium (MEM: Grand Island Biological Co.) containing 10% fetal bovine serum. Cells were routinely started from frozen cultures every 6 weeks in order to assure that the cells used were from low passage cultures.
[methyl-^3 H]Thymidine (New England Nuclear) incorporation was carried out using 96-well plates (Costar). Thymidine incorporation was used as an assay for cell viability, since in the previous studies described in the Biochem. Biophys. Res. Commun. (1983) article, other methods of assessing cell viability, including microscopic evaluation in the presence of trypan blue, gave identical results. Fifty μl of cell suspension (4×10^5 cells/ml) were added to duplicate wells. Approximately 18 hours later 25 μl of the PI-containing liposomes were added to give a final concentration of phospholipid of 200 μM (approximately, 14 nmol/2-3×10^4 cells). At various intervals after PI addition [^3 H]thymidine, 1 μCi/well was added and incubated with the cells for 3 hours. Cells were collected on glass fiber filter mats by a mechanical cell harvester (Skatron, Inc.) using a combination of scraping and fluid turbulence (saline). Filters were dried and the material was solubilized by incubation overnight with NCS tissue solubilizer and counted in the presence of Spectrafluor (Amersham).
In FIGS. 1 and 2 the curves were quite reproducible and representative experiments are shown. Because of fluctuations (<5%) in control values, the data were "normalized" by comparison with daily controls and expressed as "percentage of control in absence of PI." Typical values for uptake of [^3 H]thymidine by controls are shown in the inserts in FIGS. 1 and 2.

[4] = test system: MRC-5; experiment: Liposomal uptake by normal and tumor cells; format: cell-based; details: normal cells MRC-5
Method: as §3, §1, §2

[5] = test system: SK-N-MC; experiment: Liposomal uptake by normal and tumor cells; format: cell-based, human; details: tumor cells SK-N-MC
Method: as §3, §1, §2

[6] = test system: WI-38/SV-40; experiment: Liposomal uptake by normal and tumor cells; format: cell-based, human
Method: as §3, §1, §2

[7] = test system: N4TG1 neuroblastoma cells; experiment: Fate of liposomal PI after incubation with N4TG1 neuroblastoma cells; format: in vitro ADME, mouse
Source text: as §4, with “It was shown that it is not necessary to have cholesterol present to observe the cytotoxicity.” left out
In order to extract lipids, methanol and chloroform were added to cell homogenates to obtain a single phase of CHCl3 :CH3 OH:H2 O (1:2:1 8, v/v) containing 0.1M HCl, according to Bligh and Dyer in Can. […] The lipid compositions of the cell extracts were determined by thin layer chromatography on silica gel precoated sheets (E. M. Reagents; E. Merck, FRG) using the following solvent systems: (a) chloroform:methanol: acetic acid:water, 25:15:4:2 (v/v) (used for phospholipid separation): (b) 1-propanol:4.3M ammonia containing 10 mM EDTA, 65:35 (v/v) (used for PIP and PIP2 separations); and (c) chloroform:acetone, 1:1 (v/v) (used for DG and fatty acid separations). […]

[8] = test system: N4TG1 neuroblastoma cells; experiment: Effect on cells by linoleic acid in liposomes made of non-cytotoxic phospholipids (thymidine uptake); format: cell-based, mouse
Source text: as §4
The N4TG1 mouse neuroblastoma cell line was obtained from Dr. Peter Chiang (Walter Reed Army Institute of Research) and cultured using Dulbecco's minimal essential medium (MEM: Grand Island Biological Co.) containing 10% fetal bovine serum. […]
[methyl-^3 H]Thymidine (New England Nuclear) incorporation was carried out using 96-well plates (Costar). […] Filters were dried and the material was solubilized by incubation overnight with NCS tissue solubilizer and counted in the presence of Spectrafluor (Amersham). […]
Cellular uptake of linoleic acid was calculated based on uptake of tracer ^3 H-linoleic acid. […]

[9] = test system: N4TG1 neuroblastoma cells; experiment: Cellular uptake of linoleic acid from liposomes (tracer 3H-linoleic acid); format: cell-based, mouse
Source text: as §4
Cellular uptake of linoleic acid was calculated based on uptake of tracer ^3 H-linoleic acid. In Table 1 intracellularly generated free fatty acids occurred at a concentration of 2.2 nmol/8×10^5 cells. […] In the case of liposomes containing yeast PI as the phospholipid, the uptake of linoleic acid was 2.9 nmol/8×10^5 cells and the thymidine incorporation had decreased to 53% of control values. Although toxicity occurred at similar concentrations of fatty acids as were generated intracellularly it must be kept in mind that in the experiment in Table 2 there were also extracellular free fatty acids which could exert effects on the outer surface of the cells.

[10] = test system: lung small cell carcinoma cultures (NCI-H128); experiment: Toxicity to lung small cell carcinoma cultures, based on thymidine uptake, with inhibitors; set-up: species or system human; details: FIGS. 9c and 9d; for blocking of plant PI toxicity / competition: with plant PI
Source text: FIGS. 9c and 9d show the effects of inhibitors of phospholipase A2 (quinacrine) or prostaglandin synthesis (eicosanotetraynoic acid) or leukotriene synthesis ([…]) on cytotoxicity induced by liposomes containing plant PI/cholesterol/([^14 C]linoleoyl)PI (2/1/0.01). The NCI-H128 cells are a small cell lung carcinoma cultured cell line
Several specific inhibitors were used with lung small cell carcinoma cultures. […] In humans, this type of lung cancer is fatal very soon after detection.

Compound | Liposomal uptake [1] | Liposomal uptake [2] | cytotoxicity [3] | Liposomal uptake [4] | Liposomal uptake [5] | Liposomal uptake [6] | blocking of plant PI toxicity / competition [10] | other results
CCCCC/C=C\C/C=C\C/C=C\C/C=C\CCC[14C](=O)O[C@H](COC(=O)CCCCCCCCCCCCCCCCC)COP(=O)(O)O[C@@H]1[C@H](O)[C@H](O)[C@@H](O)[C@H](O)[C@H]1O [([^14 C]arachidonoyl)PI] | 0.55 nMoles of phospholipid/1 × 10^5 cells | 0.49 nMoles of phospholipid/1 × 10^5 cells | considerable cytotoxicity | 0.09 nMoles of phospholipid/1 × 10^5 cells | 0.39 nMoles of phospholipid/1 × 10^5 cells | 0.33 nMoles of phospholipid/1 × 10^5 cells | – | Phosphatidylcholine [7]: Not Detected
CCCCCCCC/C=C\CCCCCCC[14C](=O)O[C@H](COC(=O)CCCCCCCCCCCCCCCCC)COP(=O)(O)O[C@@H]1[C@H](O)[C@H](O)[C@@H](O)[C@H](O)[C@H]1O [([^14 C]oleoyl)PI, reference compound] | 0.28 nMoles of phospholipid/1 × 10^5 cells | 0.28 nMoles of phospholipid/1 × 10^5 cells | lacked cytotoxicity | 0.13 nMoles of phospholipid/1 × 10^5 cells | 0.28 nMoles of phospholipid/1 × 10^5 cells | 0.21 nMoles of phospholipid/1 × 10^5 cells | – | –
CCCCC/C=C\C/C=C\CCCCCCCC(=O)O [Linoleic acid, linoleic acid] | – | – | – | – | – | – | – | decrease in thymidine incorporation compared with controls ([8]; liposomes with animal PI, uptake 2.55 nmol/8×10^5 cells): 63%; thymidine incorporation ([8]; liposomes with yeast PI, uptake 2.9 nmol/8×10^5 cells): 53 % of control values; uptake of linoleic acid ([9]; 50 μM, Animal Phosphatidylinositol liposomes): 2.55 nmol/8 × 10^5 cells; uptake of linoleic acid ([9]; 50 μM, Yeast Phosphatidylinositol liposomes): 1.8 nmol/8 × 10^5 cells; uptake of linoleic acid ([9]; 100 μM, Animal Phosphatidylinositol liposomes): 3.03 nmol/8 × 10^5 cells; uptake of linoleic acid ([9]; 100 μM, Yeast Phosphatidylinositol liposomes): 2.9 nmol/8 × 10^5 cells; uptake of linoleic acid ([9]; 200 μM, Animal Phosphatidylinositol liposomes): 10.4 nmol/8 × 10^5 cells; uptake of linoleic acid ([9]; 200 μM, Yeast Phosphatidylinositol liposomes): 14.8 nmol/8 × 10^5 cells
CCN(CC)CCCC(C)Nc1c2ccc(Cl)cc2nc2ccc(OC)cc12 (stereo not drawn) [Quinacrine, quinacrine, reference compound] | – | – | – | – | – | – | No competition was observed | toxicity [10]: extremely toxic; effect of quinacrine on cytotoxicity of plant PI ([3]; in conjunction with plant PI, FIG. 9b): reversal of cytotoxicity; cytotoxicity of quinacrine alone ([3]; tumor or normal cells, FIG. 9a): somewhat cytotoxic
CCCCCC#CCC#CCC#CCC#CCCCC(=O)O [eicosanotetraynoic acid] | – | – | – | – | – | – | relatively little promise of blocking the toxicity of plant PI | –
COc1ccc2c(c1)c(CC(=O)O)c(C)n2C(=O)c1ccc(Cl)cc1 [indomethecin, indomethacin] | – | – | – | – | – | – | relatively little promise of blocking the toxicity of plant PI | –
